Targets include D(1A) dopamine receptor (Homo sapiens, UniProt P21728); D(3) dopamine receptor (Homo sapiens, UniProt P35462); Histamine H3 receptor (Homo sapiens, UniProt Q9Y5N1); Mu-type opioid receptor (Homo sapiens, UniProt P35372).
The target in another assay is Bile salt export pump (Homo sapiens, UniProt O95342). It is filed as functional.
In assay [1] the target is Voltage-gated inwardly rectifying potassium channel KCNH2 (Homo sapiens, UniProt Q12809). Format: functional.
The target in the next assay is Acetylcholinesterase (Homo sapiens, UniProt P22303). It is filed as functional.
For assay [2], the target named is T1, Alpha-2A adrenergic receptor (Homo sapiens, UniProt P08913).
T1 sequence (P08913 whole entry): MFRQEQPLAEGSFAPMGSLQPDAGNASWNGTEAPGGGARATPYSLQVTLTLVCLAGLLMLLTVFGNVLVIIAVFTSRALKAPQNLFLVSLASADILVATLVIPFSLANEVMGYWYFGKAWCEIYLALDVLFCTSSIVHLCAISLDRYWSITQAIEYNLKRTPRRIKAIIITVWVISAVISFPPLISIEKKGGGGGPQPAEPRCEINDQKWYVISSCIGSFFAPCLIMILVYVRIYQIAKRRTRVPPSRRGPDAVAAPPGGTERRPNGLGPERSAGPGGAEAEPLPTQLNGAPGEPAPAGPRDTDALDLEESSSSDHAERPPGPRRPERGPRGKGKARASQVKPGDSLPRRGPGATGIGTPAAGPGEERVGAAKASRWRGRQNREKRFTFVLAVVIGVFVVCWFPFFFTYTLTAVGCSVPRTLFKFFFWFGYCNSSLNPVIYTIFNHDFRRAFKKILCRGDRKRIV

The target of a further assay is Prothrombin (Homo sapiens, UniProt P00734). It is filed as functional.
The target in assay [3] is T2, 5-hydroxytryptamine receptor 1A (Homo sapiens, UniProt P08908).
T2 sequence (P08908 whole entry): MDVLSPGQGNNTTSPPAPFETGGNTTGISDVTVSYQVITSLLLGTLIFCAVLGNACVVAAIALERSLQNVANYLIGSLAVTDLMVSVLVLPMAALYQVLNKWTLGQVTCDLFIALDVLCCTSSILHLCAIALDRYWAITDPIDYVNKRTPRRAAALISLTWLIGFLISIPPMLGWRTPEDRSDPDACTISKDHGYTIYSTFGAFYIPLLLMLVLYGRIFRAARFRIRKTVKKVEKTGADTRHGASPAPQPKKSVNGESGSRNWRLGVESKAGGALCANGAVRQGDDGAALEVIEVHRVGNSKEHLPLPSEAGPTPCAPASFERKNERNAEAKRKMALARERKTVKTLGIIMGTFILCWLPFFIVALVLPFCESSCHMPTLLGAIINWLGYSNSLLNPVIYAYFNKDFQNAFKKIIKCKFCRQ

The target of assay [4] is 5-hydroxytryptamine receptor 2B (Homo sapiens, UniProt P41595). Format: functional, cell-based.
Assay [5] deals with cGMP-inhibited 3',5'-cyclic phosphodiesterase 3A (Homo sapiens, UniProt Q14432). It is filed as functional.
cGMP-inhibited 3',5'-cyclic phosphodiesterase 3A, sequence (Q14432 whole entry): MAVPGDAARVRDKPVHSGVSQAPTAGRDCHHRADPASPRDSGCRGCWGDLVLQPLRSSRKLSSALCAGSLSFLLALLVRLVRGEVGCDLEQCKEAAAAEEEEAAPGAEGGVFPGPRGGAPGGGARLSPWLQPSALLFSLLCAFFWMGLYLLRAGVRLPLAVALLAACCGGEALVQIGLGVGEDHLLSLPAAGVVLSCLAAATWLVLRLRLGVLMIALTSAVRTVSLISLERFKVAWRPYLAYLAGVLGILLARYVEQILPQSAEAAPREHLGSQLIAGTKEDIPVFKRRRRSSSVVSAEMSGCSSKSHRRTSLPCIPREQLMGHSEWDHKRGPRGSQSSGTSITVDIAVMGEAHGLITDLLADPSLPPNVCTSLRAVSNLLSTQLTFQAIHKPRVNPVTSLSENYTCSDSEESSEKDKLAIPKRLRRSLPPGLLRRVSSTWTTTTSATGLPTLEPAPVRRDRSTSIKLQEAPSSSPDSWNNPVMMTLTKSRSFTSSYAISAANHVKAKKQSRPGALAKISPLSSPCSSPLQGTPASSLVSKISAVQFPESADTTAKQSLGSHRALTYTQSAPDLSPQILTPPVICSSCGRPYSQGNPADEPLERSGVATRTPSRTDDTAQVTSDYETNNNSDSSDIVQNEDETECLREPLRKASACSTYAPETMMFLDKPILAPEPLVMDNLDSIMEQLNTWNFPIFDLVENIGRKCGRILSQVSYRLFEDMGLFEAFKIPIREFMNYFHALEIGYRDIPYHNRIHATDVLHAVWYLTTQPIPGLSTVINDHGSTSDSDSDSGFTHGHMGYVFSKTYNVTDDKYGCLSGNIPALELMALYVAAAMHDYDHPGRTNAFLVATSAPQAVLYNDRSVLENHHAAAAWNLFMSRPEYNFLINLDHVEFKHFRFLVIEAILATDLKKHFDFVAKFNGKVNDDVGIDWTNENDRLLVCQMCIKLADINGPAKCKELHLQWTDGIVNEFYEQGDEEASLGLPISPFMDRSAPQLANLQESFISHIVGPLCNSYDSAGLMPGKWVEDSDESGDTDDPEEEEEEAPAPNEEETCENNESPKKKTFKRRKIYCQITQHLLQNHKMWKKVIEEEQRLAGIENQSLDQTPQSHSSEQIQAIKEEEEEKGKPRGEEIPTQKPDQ
The target of assay [6] is 3',5'-cyclic-AMP phosphodiesterase 4A (Homo sapiens, UniProt P27815). Format: functional.
3',5'-cyclic-AMP phosphodiesterase 4A, sequence (P27815 whole entry): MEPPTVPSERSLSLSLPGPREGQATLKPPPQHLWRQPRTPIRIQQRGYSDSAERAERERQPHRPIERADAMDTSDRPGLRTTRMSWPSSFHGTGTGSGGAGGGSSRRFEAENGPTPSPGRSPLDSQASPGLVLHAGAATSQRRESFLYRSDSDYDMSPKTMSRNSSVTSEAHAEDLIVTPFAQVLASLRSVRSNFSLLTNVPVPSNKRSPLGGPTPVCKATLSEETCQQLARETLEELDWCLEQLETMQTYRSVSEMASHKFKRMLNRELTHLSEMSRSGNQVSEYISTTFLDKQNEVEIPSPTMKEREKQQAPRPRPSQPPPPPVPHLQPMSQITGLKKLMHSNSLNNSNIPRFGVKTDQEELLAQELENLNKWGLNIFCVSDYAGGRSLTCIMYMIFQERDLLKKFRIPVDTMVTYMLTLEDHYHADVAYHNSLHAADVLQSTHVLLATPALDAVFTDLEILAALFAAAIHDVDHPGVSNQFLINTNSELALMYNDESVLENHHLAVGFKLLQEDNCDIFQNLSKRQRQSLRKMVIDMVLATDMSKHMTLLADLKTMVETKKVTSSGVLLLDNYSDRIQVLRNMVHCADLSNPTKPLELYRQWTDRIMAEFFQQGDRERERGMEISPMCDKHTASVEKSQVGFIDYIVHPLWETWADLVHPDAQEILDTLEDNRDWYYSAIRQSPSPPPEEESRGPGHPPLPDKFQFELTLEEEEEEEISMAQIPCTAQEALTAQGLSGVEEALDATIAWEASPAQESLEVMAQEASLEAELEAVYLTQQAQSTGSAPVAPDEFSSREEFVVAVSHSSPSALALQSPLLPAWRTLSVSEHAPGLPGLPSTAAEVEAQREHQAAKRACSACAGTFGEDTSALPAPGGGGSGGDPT
Assay [7] deals with Prostaglandin G/H synthase 1 (Homo sapiens, UniProt P23219). Format: functional.
For assay [8], the target named is Sodium-dependent noradrenaline transporter (Homo sapiens, UniProt P23975).
The target of assay [9] is Sodium-dependent dopamine transporter (Homo sapiens, UniProt Q01959).
Sodium-dependent dopamine transporter, sequence (Q01959 whole entry): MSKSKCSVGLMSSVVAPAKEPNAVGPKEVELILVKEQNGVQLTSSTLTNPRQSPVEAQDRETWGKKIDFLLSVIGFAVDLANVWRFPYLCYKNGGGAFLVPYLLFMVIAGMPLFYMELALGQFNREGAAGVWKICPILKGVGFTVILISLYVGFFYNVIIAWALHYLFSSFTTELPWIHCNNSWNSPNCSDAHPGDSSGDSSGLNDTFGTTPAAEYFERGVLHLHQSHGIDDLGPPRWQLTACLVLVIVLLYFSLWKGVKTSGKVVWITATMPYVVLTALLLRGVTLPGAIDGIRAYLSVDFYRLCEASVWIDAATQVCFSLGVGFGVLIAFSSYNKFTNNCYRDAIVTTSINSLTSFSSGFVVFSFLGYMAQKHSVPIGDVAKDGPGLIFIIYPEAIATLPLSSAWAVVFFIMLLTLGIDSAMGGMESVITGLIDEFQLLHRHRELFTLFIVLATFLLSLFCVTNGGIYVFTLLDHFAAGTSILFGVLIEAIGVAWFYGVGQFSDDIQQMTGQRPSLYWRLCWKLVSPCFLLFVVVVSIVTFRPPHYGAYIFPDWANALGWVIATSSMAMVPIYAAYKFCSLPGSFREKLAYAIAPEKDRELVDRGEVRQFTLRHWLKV
The target in assay [10] is T3, Thromboxane A2 receptor (Homo sapiens, UniProt P21731).
T3 sequence (P21731 whole entry): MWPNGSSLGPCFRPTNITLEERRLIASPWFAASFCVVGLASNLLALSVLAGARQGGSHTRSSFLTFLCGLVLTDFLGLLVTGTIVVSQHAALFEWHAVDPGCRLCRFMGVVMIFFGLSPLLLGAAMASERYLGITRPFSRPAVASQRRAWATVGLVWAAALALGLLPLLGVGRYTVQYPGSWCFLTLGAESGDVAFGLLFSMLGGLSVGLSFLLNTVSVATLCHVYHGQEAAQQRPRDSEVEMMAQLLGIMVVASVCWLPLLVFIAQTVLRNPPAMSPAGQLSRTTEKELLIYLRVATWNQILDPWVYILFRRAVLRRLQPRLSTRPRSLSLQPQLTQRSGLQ
It is filed as functional, cell-based.

The target in assay [11] is T3, Thromboxane A2 receptor. Format: functional, cell-based. The source holds these as a separate data set.

Where only a bound is given, the exact number is not on record here.
Also: assay procedure not described here.

D(1A) dopamine receptor, sequence (P21728 whole entry): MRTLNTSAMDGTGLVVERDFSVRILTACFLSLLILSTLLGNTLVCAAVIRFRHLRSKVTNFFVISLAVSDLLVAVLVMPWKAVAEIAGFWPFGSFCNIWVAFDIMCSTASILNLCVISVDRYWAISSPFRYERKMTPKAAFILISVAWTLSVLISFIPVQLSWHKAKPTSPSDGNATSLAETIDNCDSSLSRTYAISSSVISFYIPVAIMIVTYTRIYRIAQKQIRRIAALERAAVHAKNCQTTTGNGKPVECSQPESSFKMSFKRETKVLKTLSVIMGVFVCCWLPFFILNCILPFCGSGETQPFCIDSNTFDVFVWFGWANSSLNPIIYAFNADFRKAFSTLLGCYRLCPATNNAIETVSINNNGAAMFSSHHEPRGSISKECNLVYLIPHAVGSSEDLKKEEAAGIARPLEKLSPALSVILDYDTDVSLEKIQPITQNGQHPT
D(3) dopamine receptor, sequence (P35462 whole entry): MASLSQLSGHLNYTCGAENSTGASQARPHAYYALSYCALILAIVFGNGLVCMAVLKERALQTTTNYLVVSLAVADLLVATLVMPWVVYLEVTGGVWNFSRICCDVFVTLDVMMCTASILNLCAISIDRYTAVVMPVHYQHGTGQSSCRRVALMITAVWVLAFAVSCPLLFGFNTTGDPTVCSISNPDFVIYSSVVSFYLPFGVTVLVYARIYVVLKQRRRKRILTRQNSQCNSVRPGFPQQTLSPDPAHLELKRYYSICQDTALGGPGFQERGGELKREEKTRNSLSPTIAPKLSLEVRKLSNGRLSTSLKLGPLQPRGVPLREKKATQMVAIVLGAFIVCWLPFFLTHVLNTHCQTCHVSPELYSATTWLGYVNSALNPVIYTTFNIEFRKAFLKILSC
Voltage-gated inwardly rectifying potassium channel KCNH2, sequence (Q12809 whole entry): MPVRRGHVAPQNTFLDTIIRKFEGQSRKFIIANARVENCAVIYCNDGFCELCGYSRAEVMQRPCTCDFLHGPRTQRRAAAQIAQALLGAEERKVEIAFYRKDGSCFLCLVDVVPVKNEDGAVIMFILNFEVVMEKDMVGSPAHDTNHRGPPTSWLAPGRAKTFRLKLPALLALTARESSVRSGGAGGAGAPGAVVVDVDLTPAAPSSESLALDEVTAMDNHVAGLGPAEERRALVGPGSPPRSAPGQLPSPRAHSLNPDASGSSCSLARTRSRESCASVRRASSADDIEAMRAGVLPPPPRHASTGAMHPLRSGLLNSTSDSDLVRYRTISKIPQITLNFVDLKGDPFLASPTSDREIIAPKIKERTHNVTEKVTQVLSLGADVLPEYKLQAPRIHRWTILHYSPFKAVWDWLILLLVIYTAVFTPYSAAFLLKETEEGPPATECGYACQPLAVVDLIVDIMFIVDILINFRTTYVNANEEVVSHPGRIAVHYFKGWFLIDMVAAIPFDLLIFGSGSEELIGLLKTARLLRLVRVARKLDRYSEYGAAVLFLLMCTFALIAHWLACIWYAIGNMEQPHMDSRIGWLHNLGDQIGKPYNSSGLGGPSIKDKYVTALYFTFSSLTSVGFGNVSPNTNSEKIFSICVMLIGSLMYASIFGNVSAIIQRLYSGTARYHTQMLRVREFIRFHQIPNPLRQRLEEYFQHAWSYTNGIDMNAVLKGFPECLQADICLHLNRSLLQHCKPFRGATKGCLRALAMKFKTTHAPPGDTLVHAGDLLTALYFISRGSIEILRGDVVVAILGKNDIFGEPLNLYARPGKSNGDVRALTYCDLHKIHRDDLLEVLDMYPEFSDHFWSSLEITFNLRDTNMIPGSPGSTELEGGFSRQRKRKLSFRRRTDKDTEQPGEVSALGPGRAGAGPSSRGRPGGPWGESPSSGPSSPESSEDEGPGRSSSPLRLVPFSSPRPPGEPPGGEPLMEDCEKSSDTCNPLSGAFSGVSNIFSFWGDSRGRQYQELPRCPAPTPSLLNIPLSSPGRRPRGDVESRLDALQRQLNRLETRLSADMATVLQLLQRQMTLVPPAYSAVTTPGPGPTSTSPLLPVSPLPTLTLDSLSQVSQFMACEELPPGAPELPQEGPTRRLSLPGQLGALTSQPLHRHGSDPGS
Mu-type opioid receptor, sequence (P35372 whole entry): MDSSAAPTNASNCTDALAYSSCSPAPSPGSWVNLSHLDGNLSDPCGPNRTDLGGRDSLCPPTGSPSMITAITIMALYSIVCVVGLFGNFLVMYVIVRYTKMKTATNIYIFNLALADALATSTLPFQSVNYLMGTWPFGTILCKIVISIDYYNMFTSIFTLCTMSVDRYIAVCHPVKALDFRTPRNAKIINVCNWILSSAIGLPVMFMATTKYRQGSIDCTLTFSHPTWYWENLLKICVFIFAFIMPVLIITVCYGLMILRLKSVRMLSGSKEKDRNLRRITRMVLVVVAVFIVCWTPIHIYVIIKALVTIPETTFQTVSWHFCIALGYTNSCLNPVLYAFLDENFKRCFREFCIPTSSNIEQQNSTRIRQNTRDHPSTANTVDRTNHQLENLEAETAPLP

For the molecule `C[C@@H](NCCCc1cccc(C(F)(F)F)c1)c1cccc2ccccc12`, the values for the AC50 (on Bile salt export pump; in [1]) were 58 µM and 1.3 µM, respectively.
Taken in the same sequence, the figures for `COc1ccc(CC2c3cc(OC)c(OC)cc3CC[N+]2(C)CCC(=O)OCCCCCOC(=O)CC[N+]2(C)CCc3cc(OC)c(OC)cc3C2Cc2ccc(OC)c(OC)c2)cc1OC` (stereo not drawn) were 170 µM and 0.16 µM.
The corresponding values for `CCN1CCN(Cc2ccc(Nc3ncc(F)c(-c4cc(F)c5nc(C)n(C(C)C)c5c4)n3)nc2)CC1` [ABEMACICLIB] are 33 µM and 6 µM.
For `COc1ccccc1Oc1c(NS(=O)(=O)c2ccc(C(C)(C)C)cc2)nc(-c2ncccn2)nc1OCCO` [BOSENTAN], the AC50 (commonly the concentration giving half of the maximal activity seen) on Bile salt export pump is 18 µM; in assay [1], > 30 µM.
The corresponding values for `CC(C(=O)O)c1ccc2c(c1)[nH]c1ccc(Cl)cc12` (stereo not drawn) [CARPROFEN] are 120 µM and > 30 µM.
For the molecule `COc1ccccc1OCCNCC(O)COc1cccc2[nH]c3ccccc3c12` (stereo not drawn) [CARVEDILOL], at Bile salt export pump, the AC50 came out at 79 µM.
Take `O=C1CCc2cc(OCCCCc3nnnn3C3CCCCC3)ccc2N1` [CILOSTAZOL]: the AC50 was 62 µM at Bile salt export pump and > 30 µM in assay [1].
As for `C[C@@H](Oc1cc(-c2cnn(C3CCNCC3)c2)cnc1N)c1c(Cl)ccc(F)c1Cl` [CRIZOTINIB], the AC50 on Bile salt export pump worked out at 154 µM.
For the molecule `O=C1CN(/N=C/c2ccc(-c3ccc([N+](=O)[O-])cc3)o2)C(O)=N1` [DANTROLENE], the AC50 on Bile salt export pump was 35 µM; in assay [1], > 30 µM.
For `CN(C)CC[C@@H](c1ccc(Cl)cc1)c1ccccn1` [DEXCHLORPHENIRAMINE], on Bile salt export pump, the concentration at half-maximal activity (AC50) is > 300 µM.
Take `CC(C)N(CCC(C(N)=O)(c1ccccc1)c1ccccn1)C(C)C` (stereo not drawn) [DISOPYRAMIDE]: on Bile salt export pump, the AC50 was > 300 µM.
Regarding `C[C@H]1c2cccc(O)c2C(=O)C2=C(O)[C@]3(O)C(=O)C(C(N)=O)=C(O)[C@@H](N(C)C)[C@@H]3[C@@H](O)[C@@H]21` [DOXYCYCLINE], the AC50 was > 300 µM at Bile salt export pump and > 30 µM in assay [1].
The corresponding values for `C[C@]12C=CC(=O)N[C@@H]1CC[C@@H]1[C@@H]2CC[C@]2(C)[C@@H](C(=O)Nc3cc(C(F)(F)F)ccc3C(F)(F)F)CC[C@@H]12` [DUTASTERIDE] are 14 µM and > 30 µM.
Regarding `CN1C[C@H](C(=O)N[C@]2(C)O[C@@]3(O)[C@@H]4CCCN4C(=O)[C@H](Cc4ccccc4)N3C2=O)C=C2c3cccc4[nH]cc(c34)C[C@H]21` [ERGOTAMINE], the AC50 came out at 25 µM at Bile salt export pump and 14.4 µM in assay [1].
`CN(C)CCC[C@@]1(c2ccc(F)cc2)OCc2cc(C#N)ccc21` [ESCITALOPRAM]: the AC50 on Bile salt export pump was > 300 µM.
The same measure, in the same setting: as for `C=C[C@H]1C[N@@]2CC[C@H]1C[C@@H]2[C@@H](O)c1ccnc2ccc(OC)cc12` [QUINIDINE], the figure is 64 µM.
As to `N[C@@H](CO)C(=O)O` [SERINE], the AC50 (on Acetylcholinesterase; in assay [2]; at D(1A) dopamine receptor; on D(3) dopamine receptor; at Prothrombin; at Histamine H3 receptor) was > 30 µM in each case. The half-maximal activity concentration (AC50) (in assay [3]; in assay [4]; in assay [1]; at Mu-type opioid receptor; in assay [5]; in [6]) was > 30 µM in each case. Moreover, the AC50 (in assay [7]; in assay [8]; in assay [9]; on Thromboxane A2 receptor [10]; on Thromboxane A2 receptor [11]) was > 30 µM in each case.
Turning to `N[C@@H](CC(=O)N1CCn2c(nnc2C(F)(F)F)C1)Cc1cc(F)c(F)cc1F` [SITAGLIPTIN], the AC50 on Bile salt export pump is > 300 µM.
`OC[C@H]1O[C@@](CO)(O[C@H]2O[C@H](CO)[C@@H](O)[C@H](O)[C@H]2O)[C@@H](O)[C@@H]1O` [SUCROSE]: the AC50 (on Acetylcholinesterase; in assay [2]; on D(1A) dopamine receptor; at D(3) dopamine receptor; at Prothrombin; on Histamine H3 receptor) was > 30 µM in each case. Also, the AC50 (in assay [3]; in assay [4]; in assay [1]; on Mu-type opioid receptor; in [5]; in [6]) was > 30 µM each time. Also, the AC50 (in assay [7]; in assay [8]; in assay [9]; at Thromboxane A2 receptor [10]; at Thromboxane A2 receptor [11]) was > 30 µM in each case.
Consider `CCN(CC)CCNC(=O)c1c(C)[nH]c(/C=C2\C(=O)Nc3ccc(F)cc32)c1C` [SUNITINIB], for which the AC50 at Bile salt export pump was 34 µM.
`CC(C)OC(=O)CCC/C=C\C[C@@H]1[C@@H](/C=C/C(F)(F)COc2ccccc2)[C@H](O)C[C@@H]1O` [TAFLUPROST]: the AC50 (at Acetylcholinesterase; in assay [2]; on D(1A) dopamine receptor; on D(3) dopamine receptor; on Prothrombin; at Histamine H3 receptor) was > 30 µM throughout. For the same molecule, the AC50 (in assay [3]; in [4]; in assay [1]; on Mu-type opioid receptor; in assay [5]; in assay [6]) was > 30 µM throughout. The AC50 was > 30 µM in assay [7]; > 30 µM in [8]; > 30 µM in assay [9]; > 30 µM at Thromboxane A2 receptor [10]; 29.6 µM on Thromboxane A2 receptor [11].
In the case of `C[C@]1(Cn2ccnn2)[C@H](C(=O)O)N2C(=O)C[C@H]2S1(=O)=O` [TAZOBACTAM], the AC50 (at Acetylcholinesterase; in assay [2]; at D(1A) dopamine receptor; on D(3) dopamine receptor; at Prothrombin; on Histamine H3 receptor) was > 30 µM each time. The AC50 (in [3]; in [4]; in assay [1]; on Mu-type opioid receptor; in [5]; in [6]) was > 30 µM each time. Moreover, the AC50 (in assay [7]; in [8]; in assay [9]; at Thromboxane A2 receptor [10]; on Thromboxane A2 receptor [11]) was > 30 µM each time.
For `CC[C@H]1OC(=O)[C@H](C)C(=O)[C@H](C)[C@@H](O[C@@H]2O[C@H](C)C[C@H](N(C)C)[C@H]2O)[C@](C)(OC)C[C@@H](C)C(=O)[C@H](C)[C@H]2N(CCCCn3cnc(-c4cccnc4)c3)C(=O)O[C@]12C` [TELITHROMYCIN], the AC50 (on Acetylcholinesterase; in assay [2]; on D(1A) dopamine receptor; at D(3) dopamine receptor; at Prothrombin; at Histamine H3 receptor) was > 30 µM in each case. Further, the AC50 (in assay [3]; in assay [4]; in assay [1]; at Mu-type opioid receptor; in assay [5]; in assay [6]) was > 30 µM throughout. In addition, the AC50 (in assay [7]; in assay [8]; in assay [9]; at Thromboxane A2 receptor [10]; at Thromboxane A2 receptor [11]) was > 30 µM throughout.

These data come from ChEMBL document CHEMBL5291721, “A preclinical secondary pharmacology resource illuminates target-adverse drug reaction associations of marketed drugs” (Nat Commun, 2023).
